According to patent publication US20250127790A1, “COMBINATION THERAPY USING VPS34 INHIBITORS” (Deciphera Pharmaceuticals, LLC, priority 2021, published 2025):

Assays:
YUMM 1.7 melanoma cells [1] = assay: qRT-PCR, combination with cGAMP, YUMM1.7 cells; type: cell-based, Mouse; details: 24 hours, 5 μM Compound 1 or 10 μM Compound 2, 10 mg/ml cGAMP
Method: (§1) YUMM1.7 cells were treated for 24 hours with DMSO or VPS34 inhibitors (5 μM Compound 1 or 10 μM Compound 2) in combination with 10 mg/ml STING agonist cGAMP (green bars). Cells were washed with PBS and RNA was isolated using the PureLink RNA kit (#12183018A, Thermo Fisher Scientific) according to the manufacturer's protocol. Genomic DNA was removed using DNA-binding columns (RNeasy plus kit, #74134, Qiagen) and/or DNase treatment (#12185010, Thermo Fisher Scientific). RNA was quantified using NanoDrop (Thermo Fisher Scientific) and 50 ng/μL RNA was used for cDNA synthesis with SuperScript IV VILO Master Mix (#11756050, Thermo Fisher Scientific). Quantitative RT-PCR (qRT-PCR) was run with diluted cDNA (1:25 or 1:12.5), PowerUp SYBR Green Master Mix (#A25741, Thermo Fisher Scientific), and 200 nM primers (see below) on a CFX Connect RT-PCR system (BioRad). Data was analyzed using the ΔΔCT method. Results are mean±SEM of three independent experiments.

[2] = system: CT26 colorectal cancer cells; assay: qRT-PCR, combination with cGAMP, CT26 cells; type: cell-based, Mouse; details: 24 hours, 5 μM Compound 1 or 10 μM Compound 2, 10 mg/mL cGAMP
Method: as §1, with “CT26” for “YUMM1.7”, “mg/mL” for “mg/ml”

4T1 breast cancer cells [3] = assay: qRT-PCR, combination with cGAMP, 4T1 cells; type: cell-based, Mouse; details: 24 hours, 5 μM Compound 1 or 10 μM Compound 2, 10 mg/ml cGAMP
Method: as §1, with “4T1” for “YUMM1.7”

YUMM 1.7 melanoma cells [4] = assay: Cytokine secretion assay, combination with cGAMP, YUMM1.7 cells; type: cell-based, mouse; details: 24 hours, 5 μM Compound 1 or 10 μM Compound 2, 10 mg/ml cGAMP
Method: as §1
(§2) Cell culture medium was centrifuged at 1600 rpm for 10 min at 4° C. and obtained supernatant stored at −80° C. Cytokine levels were quantified using following Meso Scale Discovery (MSD) assays: mouse U-PLEX RANTES/CCL5 (#K152A2K) and U-PLEX IP-10/CXCL10 (#K152UFK). Assays were run on the SECTOR Quickplex Imager and analyzed using Discovery Workbench version 4.0 (MSD).

[5] = system: CT26 colorectal cancer cells; assay: Cytokine secretion assay, combination with cGAMP, CT26 cells; type: cell-based, mouse; details: 24 hours, 5 μM Compound 1 or 10 μM Compound 2, 10 mg/mL cGAMP
Method: as §1, with “CT26” for “YUMM1.7”, “mg/mL” for “mg/ml”
as §2

4T1 breast cancer cells [6] = assay: Cytokine secretion assay, combination with cGAMP, 4T1 cells; type: cell-based, mouse; details: 24 hours, 5 μM Compound 1 or 10 μM Compound 2, 10 mg/ml cGAMP
Method: as §1, with “4T1” for “YUMM1.7”
as §2

Nc1nc2c(ncn2[C@@H]2O[C@@H]3COP(=O)(O)O[C@H]4[C@@H](O)[C@H](n5cnc6c(N)ncnc65)O[C@@H]4COP(=O)(O)O[C@@H]2[C@@H]3O)c(=O)[nH]1 [cGAMP, reference compound]
increased: CCL5 mRNA expression (YUMM 1.7 melanoma cells [1]) | CXCL10 mRNA expression (YUMM 1.7 melanoma cells [1]) | CCL5 mRNA expression [2] | CXCL10 mRNA expression [2] | CCL5 mRNA expression (4T1 breast cancer cells [3]) | CXCL10 mRNA expression (4T1 breast cancer cells [3]) | CCL5 protein secretion (YUMM 1.7 melanoma cells [4]) | CXCL10 protein secretion (YUMM 1.7 melanoma cells [4]) | CCL5 protein secretion [5] | CXCL10 protein secretion [5] | CCL5 protein secretion (4T1 breast cancer cells [6]) | CXCL10 protein secretion (4T1 breast cancer cells [6])
